Assay results as given in the supplement of paper PMC10627819.

How the values were obtained:
S. aureus DSM 20231 [1] = test: Bliss interaction score (quartile over a dose matrix) (fitness difference); higher = more antagonism (negative = synergy)
Procedure, shortened: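 The Bliss score subtracts expected fitness, the product of the single-drug fitness values, from observed fitness. Fitness is plate-normalised OD595 at entry into stationary phase, relative to the robust no-drug mean and capped at 1, with single-drug fitness inferred from combinations. Summaries are quartiles over technical, biological and donor/recipient replicates.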

S. aureus Newman = test: fitness (endpoint OD595 vs no drug) (fraction); higher = more growth
Procedure, shortened: (§1)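 Fitness is computed from the optical density at which cultures reach stationary phase, divided by the robust mean of no-drug control wells. Any value above 1 is set to 1. Cultures started at OD595 0.01 in 384-well plates with TSB, LB Lennox or CY at 37 °C, and OD595 was read every 30 min for 14 h against a first-reading background.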

S. pneumoniae D39V = test: as above
Procedure, shortened: as §1

S. aureus DSM 20231 [2] = test: as above
Procedure, shortened: as §1

[3] = first compound 0.0156 µg/mL, partner 0.15 µg/mL
[4] = first compound 0.0156 µg/mL, partner 0.3 µg/mL
[5] = first compound 0.0156 µg/mL, partner 0.6 µg/mL
[6] = first compound 0.0312 µg/mL, partner 0.15 µg/mL
[7] = first compound 0.0312 µg/mL, partner 0.3 µg/mL
[8] = first compound 0.0312 µg/mL, partner 0.6 µg/mL
[9] = first compound 0.0625 µg/mL, partner 0.15 µg/mL
[10] = first compound 0.0625 µg/mL, partner 0.3 µg/mL
[11] = first compound 0.0625 µg/mL, partner 0.6 µg/mL
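Throughout, for Bliss interaction score (quartile over a dose matrix): first quartile when negative (synergy) and third quartile when positive (antagonism).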

C=C1/C(=C\C=C2/CCC[C@]3(C)[C@@H]([C@H](C)CCCC(C)C)CC[C@@H]23)C[C@@H](O)C[C@@H]1O [Alfacalcidol] + O=C1CN(/N=C/c2ccc([N+](=O)[O-])o2)C(=O)N1 [Nitrofurantoin]
Bliss interaction score (S. aureus DSM 20231 [1]): 0.185

CC[C@H](C)[C@H](N)C1=N[C@H](C(=O)N[C@@H](CC(C)C)C(=O)N[C@H](CCC(=O)O)C(=O)N[C@H](C(=O)N[C@H]2CCCCNC(=O)[C@H](CC(N)=O)NC(=O)[C@@H](CC(=O)O)NC(=O)[C@H](Cc3cnc[nH]3)NC(=O)[C@@H](Cc3ccccc3)NC(=O)[C@H]([C@@H](C)CC)NC(=O)[C@@H](CCCN)NC2=O)[C@@H](C)CC)CS1 [Bacitracin] + CCCSc1nc(N[C@@H]2C[C@H]2c2ccc(F)c(F)c2)c2nnn([C@@H]3C[C@H](OCCO)[C@@H](O)[C@H]3O)c2n1 [Ticagrelor]
Bliss interaction score (S. aureus DSM 20231 [1]; main component drawn): -0.27

CC[C@H](C)[C@H](N)C1=N[C@H](C(=O)N[C@@H](CC(C)C)C(=O)N[C@H](CCC(=O)O)C(=O)N[C@H](C(=O)N[C@H]2CCCCNC(=O)[C@H](CC(N)=O)NC(=O)[C@@H](CC(=O)O)NC(=O)[C@H](Cc3cnc[nH]3)NC(=O)[C@@H](Cc3ccccc3)NC(=O)[C@H]([C@@H](C)CC)NC(=O)[C@@H](CCCN)NC2=O)[C@@H](C)CC)CS1 [Bacitracin] + C[C@H]1C[C@@H]2[C@H]([C@@H](O)C[C@@]3(C)[C@H]2CC[C@]3(O)C(=O)CO)[C@@]2(C)C=CC(=O)C=C12 [Methylprednisolone]
Bliss interaction score (S. aureus DSM 20231 [1]; main component drawn): -0.282

O=c1[nH]cc(F)c(=O)[nH]1 [Fluorouracil] + CN(C)C(=O)C(CCN1CCC(O)(c2ccc(Cl)cc2)CC1)(c1ccccc1)c1ccccc1 [Loperamide]
Bliss interaction score (S. aureus DSM 20231 [1]): 0.195

O=c1[nH]cc(F)c(=O)[nH]1 [Fluorouracil] + CN[C@@H]1[C@H](O[C@H]2[C@H](O[C@H]3[C@H](O)[C@@H](O)[C@H](N=C(N)N)[C@@H](O)[C@@H]3N=C(N)N)O[C@@H](C)[C@]2(O)C=O)O[C@@H](CO)[C@H](O)[C@H]1O [Streptomycin]
Bliss interaction score (S. aureus DSM 20231 [1]): -0.184

O=c1[nH]cc(F)c(=O)[nH]1 [Fluorouracil] + O=C1CN(/N=C/c2ccc([N+](=O)[O-])o2)C(=O)N1 [Nitrofurantoin]
Bliss interaction score (S. aureus DSM 20231 [1]): -0.206

CC[C@H](c1ccc(O)cc1)[C@@H](CC)c1ccc(O)cc1 [Hexestrol] + CN(C)C(=O)C(CCN1CCC(O)(c2ccc(Cl)cc2)CC1)(c1ccccc1)c1ccccc1 [Loperamide]
Bliss interaction score (S. aureus DSM 20231 [1]): -0.456

CC[C@H](c1ccc(O)cc1)[C@@H](CC)c1ccc(O)cc1 [Hexestrol] + CO[C@@]12[C@H](COC(N)=O)C3=C(C(=O)C(C)=C(N)C3=O)N1C[C@@H]1N[C@@H]12 [MitomycinC]
Bliss interaction score (S. aureus DSM 20231 [1]): -0.248

CC(C)Cc1ccc(C(C)C(=O)O)cc1 (centres undefined) [Ibuprofen] + C/C(=C\C(=O)OCCCCCCCCC(=O)O)C[C@@H]1OC[C@H](C[C@@H]2O[C@H]2[C@@H](C)[C@H](C)O)[C@@H](O)[C@H]1O [Pseudomonic acid]
Bliss interaction score (S. aureus DSM 20231 [1]): 0.169

CC(C)Cc1ccc(C(C)C(=O)O)cc1 (centres undefined) [Ibuprofen] + COc1cc(Cc2cnc(N)nc2N)cc(OC)c1OC [Trimethoprim]
Bliss interaction score (S. aureus DSM 20231 [1]): -0.145

CC(=O)NC[C@H]1CN(c2ccc(N3CCOCC3)c(F)c2)C(=O)O1 [Linezolid] + COc1ccc2[nH]c([S+]([O-])Cc3ncc(C)c(OC)c3C)nc2c1 [Omeprazole]
Bliss interaction score (S. aureus DSM 20231 [1]): 0.192

CN(Cc1cnc2nc(N)nc(N)c2n1)c1ccc(C(=O)N[C@@H](CCC(=O)O)C(=O)O)cc1 [Methotrexate] + CC1(C)S[C@@H]2[C@H](NC(=O)Cc3ccccc3)C(=O)N2[C@H]1C(=O)O [PenicillinG]
Bliss interaction score (S. aureus DSM 20231 [1]): -0.169

CN(Cc1cnc2nc(N)nc(N)c2n1)c1ccc(C(=O)N[C@@H](CCC(=O)O)C(=O)O)cc1 [Methotrexate] + COc1cc(Cc2cnc(N)nc2N)cc(OC)c1OC [Trimethoprim]
Bliss interaction score (S. aureus DSM 20231 [1]): -0.242

CO[C@@]12[C@H](COC(N)=O)C3=C(C(=O)C(C)=C(N)C3=O)N1C[C@@H]1N[C@@H]12 [Mitomycin C] + CN(N=O)C(=O)N[C@@H](C=O)[C@@H](O)[C@H](O)[C@H](O)CO [Streptozotocin]
fitness (S. aureus Newman; [3]): 0.654 | fitness (S. aureus Newman; [4]): 0.615 | fitness (S. aureus Newman; [5]): 0.462 | fitness (S. aureus Newman; [6]): 0.578 | fitness (S. aureus Newman; [7]): 0.548 | fitness (S. aureus Newman; [8]): 0.381 | fitness (S. aureus Newman; [9]): 0.433 | fitness (S. aureus Newman; [10]): 0.379 | fitness (S. aureus Newman; [11]): 0.185 | fitness (S. pneumoniae D39V; first compound 0.001075 µg/mL, partner 1.2 µg/mL): 0.899 | fitness (S. pneumoniae D39V; first compound 0.001075 µg/mL, partner 2.4 µg/mL): 0.911 | fitness (S. pneumoniae D39V; first compound 0.001075 µg/mL, partner 4.8 µg/mL): 0.915 | fitness (S. pneumoniae D39V; first compound 0.002 µg/mL, partner 1.2 µg/mL, one replicate): 0.815 | fitness (S. pneumoniae D39V; first compound 0.002 µg/mL, partner 2.4 µg/mL, one replicate): 0.796 | fitness (S. pneumoniae D39V; first compound 0.002 µg/mL, partner 4.8 µg/mL, one replicate): 0.653 | fitness (S. pneumoniae D39V; first compound 0.00215 µg/mL, partner 1.2 µg/mL): 0.84 | fitness (S. pneumoniae D39V; first compound 0.00215 µg/mL, partner 2.4 µg/mL): 0.886 | fitness (S. pneumoniae D39V; first compound 0.00215 µg/mL, partner 4.8 µg/mL): 0.848 | fitness (S. pneumoniae D39V; first compound 0.004 µg/mL, partner 1.2 µg/mL, one replicate): 0.769 | fitness (S. pneumoniae D39V; first compound 0.004 µg/mL, partner 2.4 µg/mL, one replicate): 0.739 | fitness (S. pneumoniae D39V; first compound 0.004 µg/mL, partner 4.8 µg/mL, one replicate): 0.597 | fitness (S. pneumoniae D39V; first compound 0.0043 µg/mL, partner 1.2 µg/mL): 0.74 | fitness (S. pneumoniae D39V; first compound 0.0043 µg/mL, partner 2.4 µg/mL): 0.777 | fitness (S. pneumoniae D39V; first compound 0.0043 µg/mL, partner 4.8 µg/mL): 0.603 | fitness (S. pneumoniae D39V; first compound 0.008 µg/mL, partner 1.2 µg/mL, one replicate): 0.525 | fitness (S. pneumoniae D39V; first compound 0.008 µg/mL, partner 2.4 µg/mL, one replicate): 0.588 | fitness (S. pneumoniae D39V; first compound 0.008 µg/mL, partner 4.8 µg/mL, one replicate): 0.347 | fitness (S. aureus DSM 20231 [2]; [3]): 0.706 | fitness (S. aureus DSM 20231 [2]; [4]): 0.633 | fitness (S. aureus DSM 20231 [2]; [5]): 0.571 | fitness (S. aureus DSM 20231 [2]; [6]): 0.656 | fitness (S. aureus DSM 20231 [2]; [7]): 0.645 | fitness (S. aureus DSM 20231 [2]; [8]): 0.56 | fitness (S. aureus DSM 20231 [2]; [9]): 0.541 | fitness (S. aureus DSM 20231 [2]; [10]): 0.51 | fitness (S. aureus DSM 20231 [2]; [11]): 0.433
